Measured values from US20250228984A1, “Metallophore-Radionuclide Complex as Nuclear Imaging Contrast Agents” (priority 2024, published 2025).

Legend:
[1] = TLC analysis of pyochelin complexation with gallium-68; type: physicochemical
Description: (§1) All radiometals-pyochelin combinations were screened at pH 3.5, 5.5, and 7 at both 37° C. and 50° C. […] (FIG. 4F).
(§2) Extensive HPLC and thin-layer chromatography (TLC) analysis of multiple radiometals with pyochelin or DFO were performed. Radiometals were combined with siderophore at ratio of 20 uCi/ug in 50 uL buffer. Buffers consisted of sodium acetate (NaOAc), ammonium acetate, and HEPES at pH 3.5, 5.5, and 7 respectively. Complexation was heated to either 37° C. for one hour or 50° C. for one hour. Gallium-68 was prepared by concentrating the generator eluate in 0.1 M HCl onto a 30 mg Strata-XC cartridge, which was then air dried and the gallium eluted with three 150 uL aliquots of acetone. Reactions with gallium-68 were then carried out by adding 5 μg of siderophore with 50 uL of pH 3.5 sodium acetate and ˜250 uCi of gallium-68 radiometal and incubated at 37° C. for 20 minutes. Reaction products were placed on HPLC at 5-50% acetonitrile for 15 minutes using a kinetex evo C-18 column.

[2] = TLC analysis of pyochelin complexation with titanium-45; type: physicochemical
Description: as §1, §2

[3] = Preliminary screen of Cu-64 with different siderophores (complexation); type: physicochemical; settings: for Cu-64 screen with siderophore, pH 3 / Cu-64 screen with siderophore, pH 5.5 / Cu-64 screen with siderophore, pH 7.0 / Cu-64 screen with siderophore, pH 9: 64Cu
Description: Preliminary in vitro data evaluating multiple siderophores with multiple radiometals to understand general binding characteristics was performed. To further evaluate Cu-64 binding affinity with Pch for in vivo applications, in vitro HPLC stability studies were performed to determine the percentage of bound Cu-64-Pch after incubation in serum. Samples were incubated for time points 0, 0.5, 1, 6, and 24. After incubation, samples were prepared for HPLC analysis by adding 500 uL of ammonium acetate with ethanol extraction solvent, spun at 12,000 RPM for 5 minutes. The top 2⁄3 of the supernatant was removed for HPLC analysis. After HPLC stability analysis, multiple HPLC purity studies were performed to determine the relative amount of free copper compared to Pch-bound copper. To prepare for purity analysis, 150 uCi of Cu-64 was incubated for 1 hour with varying amounts of 1 mg/mL pyochelin ranging from 0.5 to 10 uL, with ammonium acetate being added to reach a maximum volume of 350 uL. Additional purity studies were conducted using 150 uCi of Cu-64 along with 10 uL of 1 mg/mL pyochelin and ammonium acetate, but involved varying incubation periods consisting of 10, 20, 30, 45, and 60 minutes at 37° C. Lastly, UV chromatograms of Pch were generated using varying concentrations of Pch in ammonium acetate, consisting of 25, 50, 100, and 200 uL of Pch with ammonium acetate being added to reach 350 uL total volume. All HPLC analysis was conducted using 5-95% acetonitrile gradient over 10 minutes, with a flow rate of 1 mL/min using an Agilent Poroshell 120 EC-C18 column. Extensive HPLC and thin-layer chromatography (TLC) analysis of multiple radiometals with pyochelin or DFO were performed. Radiometals were combined with siderophore at ratio of 20 uCi/ug in 50 uL buffer. Buffers consisted of sodium acetate (NaOAc), ammonium acetate, and HEPES at pH 3.5, 5.5, and 7 respectively. […] Gallium-68 was prepared by concentrating the generator eluate in 0.1 M HCl onto a 30 mg Strata-XC cartridge, which was then air dried and the gallium eluted with three 150 uL aliquots of acetone. Reactions with gallium-68 were then carried out by adding 5 μg of siderophore with 50 uL of pH 3.5 sodium acetate and 250 uCi of gallium-68 radiometal and incubated at 37° C. for 20 minutes. Reaction products were placed on HPLC at 5-50% acetonitrile for 15 minutes using a […] evo C-18 column.

[4] = TLC analysis of pyochelin complexation with zirconium-89; type: physicochemical
Description: as §1, §2

[5] = TLC analysis of pyochelin complexation with lead-203; type: physicochemical
Description: as §1, §2

[6] = TLC analysis of pyochelin complexation with manganese-52; type: physicochemical
Description: as §1, §2

[7] = iTLC and HPLC characterization of DFO complexes, 64Cu; type: physicochemical; settings: 37° C.
Description: as §2

[8] = iTLC and HPLC characterization of DFO complexes, 68Ga; type: physicochemical; settings: for DFO complex, pH 3 / DFO complex, pH 5.5: 68Ga, 37° C.
Description: as §2

[9] = Radio chromatogram stability of gallium bound Pch in serum; type: in vitro ADME
[10] = test system: non-fptA expressing organisms; assay: PET/CT imaging and ex vivo biodistribution of Ga-68 pyochelin, non-fptA organisms; type: in vivo; settings: mice with non-fptA expressing organisms
[11] = test system: fptA expressing P. aeruginosa; assay: PET/CT imaging and ex vivo biodistribution of Ga-68 pyochelin, P. aeruginosa; type: in vivo, Pseudomonas aeruginosa; settings: mice, bacteria intranasally, probe retro-orbitally ~150-200uCi, PET/CT 1 hour after injection
Description: (§3) An additional in vivo study was performed using only PA01 bacteria. In this example, the bacteria were administered via intra-tracheal route, rather than intra-nasal. This route of administration is limited to 20 uL. Similarly, Ga-68 pyochelin studies were performed as follows: on day 1, PA01 was grown overnight to a concentration of ˜3×10^6 CFU/mL. After overnight incubation, the bacteria was washed with PBS and 100 uL was administered intranasally to each mouse. 5 hours after bacterial administration, Ga-68 was prepared and given retro-orbitally at a dose of ˜150-200uCi per mouse. 1 hour after Ga-68 injection, the mice were imaged via PET/CT, followed by euthanasia for biodistribution of the lungs.

[12] = test system: non-fptA expressing organisms; assay: PET/CT imaging and lung biodistribution of Cu-64 Pch in infected mice, non-fptA organisms; type: in vivo
Description: (§4) In vivo studies were performed using Balb/c mice. On day 1, Pseudomonas aeruginosa (PA01), Klebsiella pneumoniae, E. coli Nissle, E. coli UTI89, or Staphylococcus aureus bacterial concentrations of ˜3×10^6 CFU/mL were prepared via centrifugation at 7 k RPM and washed three times with 1 mL of phosphate-buffered saline (PBS). 100 uL of bacterial concentrates were administered to groups of 3 mice intra-nasally, along with one group receiving 0.9% saline. After 24 hours, Cu-64 Pch was prepared and given retro-orbitally at a dose of ˜150 uCi per mouse. 48 hours after bacterial administration, the mice underwent PET/CT imaging. Immediately after imaging, the mice were sacked, and the lungs harvested for radioactive biodistribution measurements.

[13] = test system: fptA expressing P. aeruginosa; assay: PET/CT imaging and lung biodistribution of Cu-64 Pch in infected mice, P. aeruginosa; type: in vivo, Pseudomonas aeruginosa
Description: as §4, §3

[14] = HPLC stability of Cu-64-Pch after incubation in serum; type: in vitro ADME; settings: after 24 hours of serum incubation
Description: Preliminary in vitro data evaluating multiple siderophores with multiple radiometals to understand general binding characteristics was performed. To further evaluate Cu-64 binding affinity with Pch for in vivo applications, in vitro HPLC stability studies were performed to determine the percentage of bound Cu-64-Pch after incubation in serum. Samples were incubated for time points 0, 0.5, 1, 6, and 24. After incubation, samples were prepared for HPLC analysis by adding ˜500 uL of ammonium acetate with ethanol extraction solvent, spun at 12,000 RPM for 5 minutes. The top ⅔ of the supernatant was removed for HPLC analysis. After HPLC stability analysis, multiple HPLC purity studies were performed to determine the relative amount of free copper compared to Pch-bound copper. To prepare for purity analysis, ˜150 uCi of Cu-64 was incubated for 1 hour with varying amounts of 1 mg/mL pyochelin ranging from 0.5 to 10 uL, with ammonium acetate being added to reach a maximum volume of 350 uL. Additional purity studies were conducted using ˜150 uCi of Cu-64 along with 10 uL of 1 mg/mL pyochelin and ammonium acetate, but involved varying incubation periods consisting of 10, 20, 30, 45, and 60 minutes at 37° C. […]

[15] = test system: FoxA expressing P. aeruginosa; assay: PET/CT imaging and ex vivo biodistribution of Ga-68 DFO, P. aeruginosa; type: in vivo, Pseudomonas aeruginosa
[16] = test system: non-FoxA expressing organisms; assay: PET/CT imaging and ex vivo biodistribution of Ga-68 DFO, non-FoxA organisms; type: in vivo
[17] = pH 3.5, 5.5, 7, 37° C. and 50° C.

Compound: CN1[C@@H]([C@H]2CSC(c3ccccc3O)=N2)SC[C@H]1C(=O)O [PcH, pyochelin]
- pH 3.5 (% complex) ([1]; Gallium-68, pH 3.5, 37° C.): 100 % complex
- pH 5.5 (% complex) ([1]; Gallium-68, pH 5.5, 37° C.): 100 % complex
- pH 7 (% complex) ([1]; Gallium-68, pH 7, 37° C.): 100 % complex
- complexation of gallium-68 with pyochelin ([1]; all three pH conditions (3.5, 5.5, 7) at 37° C.): 100%
- pH 3.5 (% complex) ([2]; Titanium-45, pH 3.5, 37° C.): 33.1 % complex
- pH 5.5 (% complex) ([2]; Titanium-45, pH 5.5, 37° C.): 72.3 % complex
- pH 7 (% complex) ([2]; Titanium-45, pH 7, 37° C.): 60 % complex
- association between pyochelin and titanium-45 (TLC) [2, 17]: mostly poor association
- Cu-64 screen with siderophore, pH 3 ([3]; 37° C., 60 mins): 0
- Cu-64 screen with siderophore, pH 5.5 ([3]; 37° C., 60 mins): 85
- Cu-64 screen with siderophore, pH 7.0 ([3]; 37° C., 60 mins): 95
- Cu-64 screen with siderophore, pH 9 ([3]; 37° C., 60 mins): 0
- Cu-64 screen with siderophore, pH 3 ([3]; 90° C., 30 mins): 0
- Cu-64 screen with siderophore, pH 5.5 ([3]; 90° C., 30 mins): 0
- Cu-64 screen with siderophore, pH 7.0 ([3]; 90° C., 30 mins): 0
- Cu-64 screen with siderophore, pH 9 ([3]; 90° C., 30 mins): 0
- complexation of pyochelin with copper-64, in words ([3]; in vitro studies): complexes extremely well
- binding affinity between Cu-64 and PcH ([3]; pH 5.5 and pH 7, 37° C.): high binding affinity
- pH 3.5 (% complex) ([4]; Zirconium-89, pH 3.5, 37° C.): 22.8 % complex
- pH 5.5 (% complex) ([4]; Zirconium-89, pH 5.5, 37° C.): 73.7 % complex
- pH 7 (% complex) ([4]; Zirconium-89, pH 7, 37° C.): 75.6 % complex
- association between pyochelin and zirconium-89 (TLC) [4, 17]: mostly poor association
- pH 3.5 (% complex) ([5]; Lead-203, pH 3.5, 37° C.): 3 % complex
- pH 5.5 (% complex) ([5]; Lead-203, pH 5.5, 37° C.): 3 % complex
- pH 7 (% complex) ([5]; Lead-203, pH 7, 37° C.): 2 % complex
- association between pyochelin and lead-203 (TLC) [5, 17]: mostly poor association
- pH 3.5 (% complex) ([6]; Manganese-52, pH 3.5, 37° C.): 1.2 % complex
- pH 5.5 (% complex) ([6]; Manganese-52, pH 5.5, 37° C.): 2.2 % complex
- pH 7 (% complex) ([6]; Manganese-52, pH 7, 37° C.): 1.1 % complex
- association between pyochelin and manganese-52 (TLC) [6, 17]: mostly poor association

Compound: CC(=O)N(O)CCCCCNC(=O)CCC(=O)N(O)CCCCCNC(=O)CCC(=O)N(O)CCCCCN [DFO, desferrioxamine B]
- DFO complex, pH 3 ([7]; 20 mins): 1
- DFO complex, pH 5.5 ([7]; 20 mins): 4
- DFO complex, pH 3 ([7]; 60 mins): 1
- DFO complex, pH 5.5 ([7]; 60 mins): 1
- DFO complex, pH 3 ([8]; 20 mins): 93
- DFO complex, pH 5.5 ([8]; 20 mins): 62
- DFO complex, pH 3 ([8]; 60 mins): 92
- DFO complex, pH 5.5 ([8]; 60 mins): 98
- complexation between Ga-68 and DFO, in words ([8]; pH 3 and pH 5.5, 37° C.): high complexation

Compound: gallium-68 bound pyochelin [Ga-68 Pch]
- stability in serum (radio chromatogram) [9]: high stability in serum
- uptake of probe in the lungs (in vivo imaging and ex vivo biodistribution) [10]: limited uptake
- uptake of probe in the lungs (in vivo imaging and ex vivo biodistribution) [11]: increased uptake

Compound: copper-64 bound pyochelin [Cu-64-Pch]
- uptake of probe in the lungs (imaging and radioactive biodistribution) ([12]; Balb/c mice infected with non-fptA expressing organisms, probe retro-orbitally ~150 uCi): limited uptake
- transport of probe into bacterial cells (in vivo images) ([12]; bacterial cells that don't express the fptA receptor): not transported
- uptake of probe in the lungs (imaging and radioactive biodistribution) ([13]; Balb/c mice, bacteria intra-nasally, probe retro-orbitally ~150 uCi, PET/CT 48 hours after bacteria): increased uptake
- transport of probe into bacterial cells (in vivo images) ([13]; P. aeruginosa cells): transported into the P. aeruginosa cells
- biodistribution levels in lungs ([13]; P. aeruginosa containing lungs): elevated levels
- biodistribution and probe accumulation, intra-tracheal compared to intra-nasal bacterial administration ([13]; PA01 administered intra-tracheally vs intra-nasally): significant increase in biodistribution and probe accumulation
- stability after serum incubation (HPLC) [14]: ≥ 91%

Compound: CC(=O)N([O-])CCCCCNC(=O)CCC(=O)N([O-])CCCCCNC(=O)CCC(=O)N([O-])CCCCCN.[68Ga+3] [Ga-68 DFO, gallium-68 bound DFO]
- uptake of probe in the lungs (in vivo imaging and ex vivo biodistribution) [15]: increased uptake
- uptake of probe in the lungs (in vivo imaging and ex vivo biodistribution) [16]: limited uptake
